According to patent publication US20070043062A1, “Isoxazoles as peptide deformylase inhibitors” (Arpida A/S, priority 2003, published 2007):

Assays:
[1] = molecular target: T1, S. aureus, PDF enzyme (Staphylococcus aureus, UniProt P68826); test: Bacterial peptide deformylase (PDF) assay, colorimetric cell free, f-Met-Ala substrate, TNBS detection at 420 nm; type: biochemical; settings: means of three experiments; 30 minutes at room temperature, pH 7.2; read-out: PDF enzyme inhibitory activity IC50, S. aureus, PDF enzyme
T1 sequence (P68826 1-183): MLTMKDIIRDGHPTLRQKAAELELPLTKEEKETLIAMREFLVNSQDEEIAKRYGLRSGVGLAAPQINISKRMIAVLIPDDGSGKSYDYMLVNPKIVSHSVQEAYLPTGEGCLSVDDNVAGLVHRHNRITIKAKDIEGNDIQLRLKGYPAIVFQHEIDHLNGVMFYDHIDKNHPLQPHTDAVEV
From the text: To find inhibitors of Peptide Deformylase (PDF), a colorimetric cell free assay for measuring the enzymatic activity of PDF has been adapted to the microtiter plate format (96 wells). The assay comprises three components, purified PDF, f-Met-Ala as substrate and TNBS as the detecting agent of primary amino groups. The resulting TNP-NH-Met-Ala sulfite complex can be detected at 420 nm. PDF enzymes, containing Fe^2+ as the native metal, are purified and are stabilized by the addition of tris(2-carboxyethyl)phosphine (TCEP).
(§1) The IC50 value of a compound of the invention as a bacterial PDF inhibitor was determined using the following assay.
(§2) Assay buffer: 0.1M MOPS pH was adjusted to 7.2 with NaOH, containing 0.25 M NaCl, 100 μg/mL catalase and 1 mg/mL BSA.
S. aureus (15 mg/ml) 10 μl+990 μl Assay buffer, 0.3 μl per ml enzyme mix.
(§3) Substrate mix: 10 mM f-Met-Ala was made up from 200 mM f-Met-Ala in methanol with assay buffer.
(§4) TNBS solution: Freshly dilute 1 M TNBS stock solution diluted 1:10 with water.
(§5) Buffer C, 0.5 M borate buffer adjusted to pH 9.5 with NaOH.
(§6) Buffer D: 0.2 ml of freshly prepared 0.5 M Na2SO3 was mixed with 9.8 mL of 0.5M NaH2PO4.
(§7) Inhibitor solution: 2 mM Sodium 4-(hydroxymercurio) benzoate in assay buffer.
(§8) Compound mix: Compound of formula I dissolved in DMSO in a 10 mg/mL stock solution. Further dilutions were made in DMSO in the concentration range between 0.05 to 100 mM.
The assay was performed in a 96 Microtiter plate containing test compound. To each well containing test compound mix was added 75 microliter of enzyme mix followed by the addition of 25 microliter of substrate mix. The resulting mix was incubated for 30 minutes at room temperature with shaking. TNBS solution (50 microliter/well) was added and the resulting mixture was incubated for 15 minutes under shaking. Buffer C was then added (20 microliter/well). After incubating at room temperature for 15 minutes under shaking, buffer D was added (50 microliter/well). The optical […] was then measured at 420 nm, thereby determining the IC50 value.

[2] = molecular target: E. coli, PDF enzyme (Escherichia coli, UniProt P0A6K3); test: as above; type: biochemical
Protocol: The assay comprises three components, purified PDF, f-Met-Ala as substrate and TNBS as the detecting agent of primary amino groups. The resulting TNP-NH-Met-Ala sulfite complex can be detected at 420 nm. PDF enzymes, containing Fe^2+ as the native metal, are purified and are stabilized by the addition of tris(2-carboxyethyl)phosphine (TCEP).
as §1, §2
E. coli enzyme (2.5 mg/ml) 10 μl+290 μl Assay buffer, 1 μl per ml enzyme mix.
as §3, §4, §5, §6, §7, §8
The assay was performed in a 96 Microtiter plate containing test compound. […] The optical diffraction was then measured at 420 nm, thereby determining the IC50 value.

E. coli, PDF enzyme, sequence (P0A6K3 whole entry): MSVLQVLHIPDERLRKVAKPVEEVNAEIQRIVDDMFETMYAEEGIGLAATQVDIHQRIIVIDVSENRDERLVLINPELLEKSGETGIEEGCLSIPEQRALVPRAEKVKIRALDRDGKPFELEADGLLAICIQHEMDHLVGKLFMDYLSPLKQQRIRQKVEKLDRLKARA

SMILES | melting point | IC50 [1] [µM] | IC50 [2] [µM]
O=C(NO)c1cc(CSc2ccccc2OC(F)(F)F)on1 | 108 to 109 °C (dec.) |  | 
O=C(NO)c1cc(CSc2nccc(-c3cccs3)n2)on1 | 165 to 168 °C (dec.) |  | 
CC(c1cc(C(=O)NO)no1)S(=O)(=O)c1ccc(Cl)cc1 (stereo not shown) | 162 °C (dec.) |  | 
Cc1ccc(SCc2cc(C(=O)NO)no2)cc1 [Example 1, 5-(4-Toluenesulfanylmethyl)-isoxazole-3-carboxylic acid hydroxyamide] | 94 to 96 °C (dec.) | 4 | 
O=C(NO)c1cc(CSc2ccc(Cl)cc2)on1 [Example 2, 5-(4-Chloro-phenylsulfanylmethyl)-isoxazole-3-carboxylic acid hydroxyamide] |  | 1.3 | 
O=C(NO)c1cc(CSc2cccc(Cl)c2)on1 [Example 3, 5-(3-Chloro-phenylsulfanylmethyl)-isoxazole-3-carboxylic acid hydroxyamide] | 105 to 107 °C (dec.) | 2.3 | 
O=C(NO)c1cc(CSc2ccccc2Cl)on1 [Example 4, 5-(2-Chloro-phenylsulfanylmethyl)-isoxazole-3-carboxylic acid hydroxyamide] | 141 to 143 °C (dec.) | 3.8 | 
O=C(NO)c1cc(CSc2ccc(Cl)c(Cl)c2)on1 [Example 5, 5-(3,4-Dichloro-phenylsulfanylmethyl)-isoxazole-3-carboxylic acid hydroxyamide] | 99 to 102 °C (dec.) | 2 | 
O=C(NO)c1cc(CSc2ccccc2Br)on1 [Example 6, 5-(2-Bromo-phenylsulfanylmethyl)-isoxazole-3-carboxylic acid hydroxyamide] | 135 to 136 °C (dec.) | 4.9 | 
O=C(NO)c1cc(CSc2cccc(Br)c2)on1 [Example 7, 5-(3-Bromo-phenylsulfanylmethyl)-isoxazole-3-carboxylic acid hydroxyamide] | 104 to 105 °C | 2 | 
CC(C)c1ccccc1SCc1cc(C(=O)NO)no1 [Example 8, 5-(2-Isopropyl-phenylsulfanylmethyl)-isoxazole-3-carboxylic acid hydroxyamide] | 121 to 123 °C (dec.) | 7.6 | 
Cc1cc(C)c(SCc2cc(C(=O)NO)no2)c(C)c1 [Example 9, 5-(2,4,6-Trimethyl-phenylsulfanylmethyl)-isoxazole-3-carboxylic acid hydroxyamide] | 133 to 135 °C (dec.) | 37.7 | 
COc1cccc(SCc2cc(C(=O)NO)no2)c1 [Example 11, 5-(3-Methoxy-phenylsulfanylmethyl)-isoxazole-3-carboxylic acid hydroxyamide] | 116 °C | 2.2 | 
O=C(NO)c1cc(CSc2ccc(F)cc2)on1 [Example 12, 5-(4-Fluoro-phenylsulfanylmethyl)-isoxazole-3-carboxylic acid hydroxyamide] | 98 to 99 °C (dec.) | 1.5 | 
O=C(NO)c1cc(CSc2ccc(C(F)(F)F)cc2)on1 [Example 13, 5-(4-Trifluoromethyl-phenylsulfanylmethyl)-isoxazole-3-carboxylic acid hydroxyamide] | 129 °C | 8.7 | 
O=C(NO)c1cc(CSc2ccccc2C(F)(F)F)on1 [Example 14, 5-(2-Trifluoromethyl-phenylsulfanylmethyl)-isoxazole-3-carboxylic acid hydroxyamide] | 140 to 144 °C (dec.) | 9.3 | 
O=C(NO)c1cc(CSCc2cc3ccccc3s2)on1 [Example 16, 5-(Benzothiophen-2-ylmethylsulfanylmethyl)-isoxazole-3-carboxylic acid hydroxyamide] | 143 to 145 °C (dec.) | 12.7 | 
O=C(NO)c1cc(CSCc2cccc(C(F)(F)F)c2)on1 [Example 17, 5-(3-Trifluoromethyl-benzylsulfanylmethyl)-isoxazole-3-carboxylic acid hydroxyamide] | 109 to 110 °C | 2.2 | 
Cc1ccc(S(=O)(=O)Cc2cc(C(=O)NO)no2)cc1 [Example 33, 5-(4-Toluenesulfonylmethyl)-isoxazole-3-carboxylic acid hydroxyamide] |  | 1.4 | 11.5
O=C(NO)c1cc(CS(=O)(=O)c2ccc(Cl)cc2)on1 [Example 34, 5-(4-Chloro-benzenesulfonylmethyl)-isoxazole-3-carboxylic acid hydroxyamide] |  | 0.8 | 
O=C(NO)c1cc(CS(=O)(=O)c2cccc(Cl)c2)on1 [Example 35, 5-(3-Chloro-benzenesulfonylmethyl)-isoxazole-3-carboxylic acid hydroxyamide] |  | 1.7 | 
CC(C)c1ccccc1S(=O)(=O)Cc1cc(C(=O)NO)no1 [Example 36, 5-(2-Isopropyl-benzenesulfonylmethyl)-isoxazole-3-carboxylic acid hydroxyamide] | 170 °C (dec.) | 3.4 | 
COc1cccc(S(=O)(=O)Cc2cc(C(=O)NO)no2)c1 [Example 37, 5-(3-Methoxy-benzenesulfonylmethyl)-isoxazole-3-carboxylic acid hydroxyamide] |  | 6.5 | 
Cc1ccc([S+]([O-])Cc2cc(C(=O)NO)no2)cc1 (stereo not shown) [Example 38, 5-(4-Toluenesulfinylmethyl)-isoxazole-3-carboxylic acid hydroxyamide] |  | 0.9 | 
